Results as given in ChEMBL document CHEMBL2150930, “Design, synthesis and pharmacological evaluation of novel tacrine-caffeic acid hybrids as multi-targeted compounds against Alzheimer's disease” (Bioorg Med Chem Lett, 2012).
Activity calls are given as the source filed them. The rule behind the calls is not given here.

Tests used:
HT-22 [1] = assay: Neuroprotective activity in mouse HT22 cells assessed as protection against H2O2-induced cell death at 3 to 30 uM preincubated for 30 mins prior to H2O2 challenge measured after 24 hrs by MTT assay; type: functional, cell-based
HT-22 [2] = assay: Cytotoxicity against mouse HT22 cells at 100 uM after 30 mins by LDH release assay; type: cell-based; conditions: ht-22, 0.5 h
Acetylcholinesterase = Acetylcholinesterase (Electrophorus electricus, UniProt O42275); assay: Inhibition of electric eel AChE using […] as substrate preincubated for 20 mins by Ellman's method
HT-22 [3] = assay: Cytotoxicity against mouse HT22 cells assessed as cell viability at 30 uM after 24 hrs by MTT assay; type: cell-based; conditions: ht-22, 24 h
[4] = test system: Radical scavenging activity
Description: Antioxidant activity of the compound assessed as DPPH radical scavenging activity after 60 mins

Cholinesterase = Cholinesterase (Equus caballus, UniProt P81908)
Description: Inhibition of horse serum BuChE using butyrylthiocholine iodide as substrate preincubated for 20 mins by Ellman's method

HT-22 [5] = assay: […] against mouse HT22 cells at 100 uM after 30 mins by LDH release assay; type: cell-based; conditions: ht-22, 0.5 h
[6] = molecular target: Acetylcholinesterase (Electrophorus electricus) (UniProt O42275); assay: Mixed type inhibition of electric eel AChE using […] as substrate by Lineweaver-Burk plot analysis
[7] = Antioxidant activity against Cu2+-mediated ROS formation in HEPES buffer at pH 7.4 assessed as compound-Cu2+ complex formation at 40 uM after 5 mins by UV-vis spectrophotometric analysis; type: functional

Acetylcholinesterase, sequence (O42275 whole entry): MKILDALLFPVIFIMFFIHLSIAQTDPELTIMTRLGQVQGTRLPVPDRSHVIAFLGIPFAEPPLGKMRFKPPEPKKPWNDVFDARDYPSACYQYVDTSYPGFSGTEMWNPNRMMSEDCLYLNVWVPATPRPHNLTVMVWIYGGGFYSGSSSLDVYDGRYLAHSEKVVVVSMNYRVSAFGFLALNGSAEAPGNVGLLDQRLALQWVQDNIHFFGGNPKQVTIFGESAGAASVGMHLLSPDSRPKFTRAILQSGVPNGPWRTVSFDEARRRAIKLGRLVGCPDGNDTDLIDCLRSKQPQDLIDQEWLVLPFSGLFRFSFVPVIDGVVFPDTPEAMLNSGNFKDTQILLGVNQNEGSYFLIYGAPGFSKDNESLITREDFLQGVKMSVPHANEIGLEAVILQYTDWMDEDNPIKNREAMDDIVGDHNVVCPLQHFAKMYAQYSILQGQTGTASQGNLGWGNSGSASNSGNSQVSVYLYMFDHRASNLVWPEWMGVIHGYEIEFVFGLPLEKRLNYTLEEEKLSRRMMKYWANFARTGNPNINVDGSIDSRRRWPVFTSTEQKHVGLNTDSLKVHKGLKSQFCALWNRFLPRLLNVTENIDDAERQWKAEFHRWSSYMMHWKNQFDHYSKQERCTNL
Cholinesterase, sequence (P81908 whole entry): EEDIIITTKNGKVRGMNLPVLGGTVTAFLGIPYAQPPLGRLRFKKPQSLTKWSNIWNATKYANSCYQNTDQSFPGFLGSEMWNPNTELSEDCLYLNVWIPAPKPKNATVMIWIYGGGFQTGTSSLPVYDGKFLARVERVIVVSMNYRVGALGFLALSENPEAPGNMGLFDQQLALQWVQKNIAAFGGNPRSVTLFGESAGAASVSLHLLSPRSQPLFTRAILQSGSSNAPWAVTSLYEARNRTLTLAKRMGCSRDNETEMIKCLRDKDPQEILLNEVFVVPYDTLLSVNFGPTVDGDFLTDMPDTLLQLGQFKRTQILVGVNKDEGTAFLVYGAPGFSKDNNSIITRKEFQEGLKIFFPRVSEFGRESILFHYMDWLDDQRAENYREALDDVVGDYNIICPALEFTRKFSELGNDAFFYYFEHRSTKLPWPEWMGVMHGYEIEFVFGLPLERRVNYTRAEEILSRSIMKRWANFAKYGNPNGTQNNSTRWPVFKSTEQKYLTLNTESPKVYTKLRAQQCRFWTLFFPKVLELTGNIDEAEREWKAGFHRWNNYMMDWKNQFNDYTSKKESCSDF
Acetylcholinesterase (Electrophorus electricus), sequence (O42275 24-633 limits assumed): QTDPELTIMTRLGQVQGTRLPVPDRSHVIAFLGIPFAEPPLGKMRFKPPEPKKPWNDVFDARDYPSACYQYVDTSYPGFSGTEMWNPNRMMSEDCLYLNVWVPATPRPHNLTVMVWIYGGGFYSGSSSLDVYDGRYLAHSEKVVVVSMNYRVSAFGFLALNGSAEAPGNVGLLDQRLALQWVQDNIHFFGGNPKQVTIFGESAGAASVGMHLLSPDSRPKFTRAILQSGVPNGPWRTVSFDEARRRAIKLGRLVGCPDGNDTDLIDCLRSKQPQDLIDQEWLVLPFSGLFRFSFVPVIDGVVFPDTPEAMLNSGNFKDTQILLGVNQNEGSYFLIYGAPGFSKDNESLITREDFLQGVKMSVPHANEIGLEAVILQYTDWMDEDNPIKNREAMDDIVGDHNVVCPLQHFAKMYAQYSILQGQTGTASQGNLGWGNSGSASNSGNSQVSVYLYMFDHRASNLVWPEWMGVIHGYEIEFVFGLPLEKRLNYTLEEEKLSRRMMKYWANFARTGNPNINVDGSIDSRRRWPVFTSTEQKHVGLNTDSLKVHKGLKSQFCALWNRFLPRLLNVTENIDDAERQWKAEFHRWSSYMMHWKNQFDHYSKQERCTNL

O=C(/C=C/c1ccc(O)c(O)c1)NCCCCCCNc1c2c(nc3cc(Cl)ccc13)CCCC2
Activity (HT-22 [1]): Active | Activity (HT-22 [2]): Non-toxic | IC50 (Acetylcholinesterase): 6.3 µM | Activity (HT-22 [3]): Toxic | IC50 [4]: 4.7 µM | IC50 (Cholinesterase): 3.8 µM

O=C(/C=C/c1ccc(O)c(O)c1)NCCCNc1c2c(nc3cc(Cl)ccc13)CCCC2
Activity (HT-22 [1]): Active | Activity (HT-22 [2]): Non-toxic | Activity (HT-22 [5]): Toxic | inhibition [6]: Active | IC50 (Acetylcholinesterase): 0.3 µM | Activity (HT-22 [3]): Toxic | Activity [7]: Active | IC50 [4]: 4.8 µM | IC50 (Cholinesterase): 29.5 µM

O=C(/C=C/c1ccc(O)c(O)c1)NCCNc1c2c(nc3ccccc13)CCCC2
IC50 (Acetylcholinesterase): 1.8 µM | IC50 [4]: 14.1 µM | IC50 (Cholinesterase): 2.3 µM

O=C(/C=C/c1ccc(O)c(O)c1)NCCCNc1c2c(nc3ccccc13)CCCC2
IC50 (Acetylcholinesterase): 0.0088 µM | IC50 [4]: 11.1 µM | IC50 (Cholinesterase): 0.0837 µM

O=C(/C=C/c1ccc(O)c(O)c1)NCCNc1c2c(nc3cc(Cl)ccc13)CCCC2
Activity (HT-22 [1]): Active | IC50 (Acetylcholinesterase): 1 µM | IC50 [4]: 9.7 µM | IC50 (Cholinesterase): 5.5 µM

O=C(/C=C/c1ccc(O)c(O)c1)NCCCCCCNc1c2c(nc3ccccc13)CCCC2
IC50 (Acetylcholinesterase): 1.9 µM | IC50 [4]: 10.4 µM | IC50 (Cholinesterase): 3.9 µM
